One experiment concerns the target T1, D1 dopamine receptor (Rattus norvegicus, UniProt P18901).
T1 construct: rat striatal membranes; from tissue; host or cells: rat striatum membranes
Kind of experiment: Dopamine D1 binding assay ([3H]SCH 23390). The note with it: Table III; rat striatal membranes; read-out: D1 receptor binding affinity Ki. Here is the method: The final radioligand concentration was 0.5 nM.

For another experiment, the target named is T2, D2 dopamine receptor (Rattus norvegicus, UniProt P61169).
T2 construct: rat striatal membranes; from tissue; host or cells: rat striatum membranes
Kind of experiment: Dopamine D2 binding assay ([3H]Sulpiride). The note with it: for dopamine receptor binding affinity / selectivity for the D2 over the D1 dopamine receptor: in words. Here is the method: The final ligand concentration was 0.5 nM.

Experiment [1] deals with alpha2-adrenergic receptor. Kind of experiment: Alpha2-adrenergic (non-selective) binding assay ([3H]RX 781094). The arrangement: species or system rat. The note with it: for Ki: Table III, rat cortical membranes, read-out: α2 receptor binding affinity Ki; for α2 receptor binding affinity: in words.
Another experiment concerns the target T3, 5HT1A serotonin receptor (Bos taurus, UniProt F6Q2H9).
T3 construct: bovine hippocampus; from tissue; host or cells: bovine hippocampus
T3 sequence (F6Q2H9 1-422): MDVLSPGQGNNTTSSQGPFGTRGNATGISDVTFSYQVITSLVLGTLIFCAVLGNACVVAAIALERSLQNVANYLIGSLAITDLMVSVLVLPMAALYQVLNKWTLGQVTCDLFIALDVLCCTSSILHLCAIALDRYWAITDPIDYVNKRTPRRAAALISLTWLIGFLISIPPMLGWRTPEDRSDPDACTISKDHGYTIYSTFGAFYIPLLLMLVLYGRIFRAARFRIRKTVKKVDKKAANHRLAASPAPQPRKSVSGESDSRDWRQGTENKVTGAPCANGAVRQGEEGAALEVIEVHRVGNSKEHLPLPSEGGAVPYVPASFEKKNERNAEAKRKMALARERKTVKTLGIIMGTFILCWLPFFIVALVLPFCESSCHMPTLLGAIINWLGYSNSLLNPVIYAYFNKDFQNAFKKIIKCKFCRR
Briefly: Serotonin (5HT1A) binding assay ([3H]-8-OH-DPAT). Further details: species or system bovine. The conditions noted are these: for Ki: 5-HT1A receptor binding affinity Ki, Table III, bovine hippocampus; for 5HT1A serotonin receptor binding affinity: in words.

Another experiment addresses T4, 5HT2 serotonin receptor (Rattus norvegicus, UniProt P14842).
T4 construct: rat cortical membranes; from tissue; host or cells: rat cortex membranes
Kind of experiment: Serotonin (5HT2) binding assay ([3H]Ketanserin). The procedure: The final ligand concentration was 1.0 nM.

In experiment [2] the target is alpha1-adrenergic receptor. The note with it: for Ki: read-out: α1 receptor binding affinity Ki, Table III, rat forebrain membranes.
The next experiment concerns the target 5HT1 serotonin receptor. Kind of experiment: Serotonin (5HT1) binding assay. The note with it: for Ki: read-out: 5-HT1 receptor binding affinity Ki, Table III, rat cortical membranes.

Structures are written as SMILES. Where two headings read alike, the source gives them in different places.

T4 sequence (P14842 whole entry): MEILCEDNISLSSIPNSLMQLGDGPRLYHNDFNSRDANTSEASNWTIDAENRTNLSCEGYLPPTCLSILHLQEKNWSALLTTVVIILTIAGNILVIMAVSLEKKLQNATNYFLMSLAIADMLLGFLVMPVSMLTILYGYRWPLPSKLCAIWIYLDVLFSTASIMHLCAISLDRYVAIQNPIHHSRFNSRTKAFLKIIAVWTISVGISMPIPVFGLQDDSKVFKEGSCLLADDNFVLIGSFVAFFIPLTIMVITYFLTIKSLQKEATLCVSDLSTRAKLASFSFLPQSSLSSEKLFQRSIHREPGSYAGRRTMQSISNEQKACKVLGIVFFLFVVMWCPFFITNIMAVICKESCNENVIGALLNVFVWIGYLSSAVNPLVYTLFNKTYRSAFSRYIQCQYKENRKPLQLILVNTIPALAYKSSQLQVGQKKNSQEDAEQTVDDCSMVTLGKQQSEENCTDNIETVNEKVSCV
T2 sequence (P61169 whole entry): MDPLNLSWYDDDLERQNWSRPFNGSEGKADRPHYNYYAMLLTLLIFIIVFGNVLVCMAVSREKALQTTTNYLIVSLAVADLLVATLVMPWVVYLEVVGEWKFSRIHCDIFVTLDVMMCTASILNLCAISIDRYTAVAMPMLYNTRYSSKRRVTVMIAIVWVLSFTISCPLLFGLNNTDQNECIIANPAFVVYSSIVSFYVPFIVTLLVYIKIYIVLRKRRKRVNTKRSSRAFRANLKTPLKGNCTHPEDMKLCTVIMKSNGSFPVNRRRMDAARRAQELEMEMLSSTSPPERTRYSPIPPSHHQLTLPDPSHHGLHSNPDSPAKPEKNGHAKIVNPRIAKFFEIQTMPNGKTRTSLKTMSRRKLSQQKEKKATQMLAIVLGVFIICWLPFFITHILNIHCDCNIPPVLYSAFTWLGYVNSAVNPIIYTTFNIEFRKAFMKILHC
T1 sequence (P18901 whole entry): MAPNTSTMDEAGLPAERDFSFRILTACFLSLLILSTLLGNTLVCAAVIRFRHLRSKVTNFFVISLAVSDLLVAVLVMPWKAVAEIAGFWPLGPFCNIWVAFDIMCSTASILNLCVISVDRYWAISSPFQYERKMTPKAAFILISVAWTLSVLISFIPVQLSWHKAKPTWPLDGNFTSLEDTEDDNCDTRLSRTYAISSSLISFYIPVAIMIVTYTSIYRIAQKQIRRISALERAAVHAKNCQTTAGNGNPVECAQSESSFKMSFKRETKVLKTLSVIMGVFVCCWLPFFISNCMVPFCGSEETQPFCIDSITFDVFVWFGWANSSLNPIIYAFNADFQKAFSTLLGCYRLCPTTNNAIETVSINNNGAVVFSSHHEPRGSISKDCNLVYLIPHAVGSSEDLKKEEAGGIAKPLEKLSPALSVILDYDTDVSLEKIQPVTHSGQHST

With `Oc1ccc2c(c1O)CC[C@H]1[C@H]2CCCN1CCc1ccccc1` (single isomer, unassigned) [trans-(-)-9, Trans-(-)-7,8-Dihydroxy-4-phenethyl-1,2,3,4,4a,5,6, 10b-octahydrobenzo[f]quinoline], the Ki was 3500 nM at D1 dopamine receptor; 0.38 nM at D2 dopamine receptor; 9 nM in experiment [1]; 67 nM on 5HT1A serotonin receptor; 26 nM on 5HT2 serotonin receptor; 130 nM in experiment [2]. Also, the Ki at 5HT1 serotonin receptor turned out to be 3300 nM. The “dopamine receptor binding affinity” value on D2 dopamine receptor is reported as “good dopamine receptor binding affinities”. The “selectivity for the D2 over the D1 dopamine receptor” value at D2 dopamine receptor is recorded as “highly selective for the D2 dopamine receptor over the D1 dopamine receptor”. In addition, the “α2 receptor binding affinity” value in experiment [1] is “high binding affinities for the α2 receptor”. On 5HT1A serotonin receptor, the “5HT1A serotonin receptor binding affinity” value is reported as “high binding affinities for the 5HT1A serotonin receptor”. Further, the “5HT2 serotonin receptor binding affinity” value on 5HT2 serotonin receptor (in words) is on record as “high binding affinities for the 5HT2 serotonin receptor”.

In the case of `Oc1cccc2c1CC[C@@H]1[C@@H]2CCCN1CCc1ccccc1` (single isomer, unassigned) [trans-(-)-25, trans-(-)-7-hydroxy-4-phenethyl-1,2,3,4a,5,6,10b-octahydrobenzo[f]quinoline], the inhibition constant Ki on D1 dopamine receptor amounted to 3600 nM; at D2 dopamine receptor, 0.9 nM; in experiment [1] it was 2.1 nM; on 5HT1A serotonin receptor, 11 nM; on 5HT2 serotonin receptor (5-HT2 receptor binding affinity Ki), 410 nM; in experiment [2], 4.8 nM. For the same compound, the inhibition constant (Ki) at 5HT1 serotonin receptor amounted to 240 nM. The “dopamine receptor binding affinity” value on D2 dopamine receptor was “good dopamine receptor binding affinities”. For the same compound, the “selectivity for the D2 over the D1 dopamine receptor” value at D2 dopamine receptor is listed as “highly selective for the D2 dopamine receptor over the D1 dopamine receptor”. Besides, in experiment [1], the “α2 receptor binding affinity” value is listed as “high binding affinities for the α2 receptor”. Further, the “5HT1A serotonin receptor binding affinity” value on 5HT1A serotonin receptor is on record as “high binding affinities for the 5HT1A serotonin receptor”. Besides, in experiment [2] (in words), the “α1 receptor binding affinity” value is reported as “high binding affinities for the α1 receptor”. Further, the “5HT1 serotonin receptor binding affinity” value in the experiment with 5HT1 serotonin receptor (in words) is on record as “high binding affinity for the 5HT1 serotonin receptor”.

The values above are taken from US6262064A, “Octahydrobenzo[f]quinoline-based receptor agonists and antagonists” (priority 1999, dated 2001).
